As a reminder, the IC50 is the concentration that inhibits the measured activity by half. A high value points to lower potency.

The first assay addresses T1, RORγ-LBD (Homo sapiens, UniProt P51449).
T1 construct: HIS-tagged RORγ-LBD was recombinantly expressed in SF9 cells; made in house; host or cells: SF9 cells (baculovirus); unpurified lysate
T1 sequence (P51449 269-508 limits assumed): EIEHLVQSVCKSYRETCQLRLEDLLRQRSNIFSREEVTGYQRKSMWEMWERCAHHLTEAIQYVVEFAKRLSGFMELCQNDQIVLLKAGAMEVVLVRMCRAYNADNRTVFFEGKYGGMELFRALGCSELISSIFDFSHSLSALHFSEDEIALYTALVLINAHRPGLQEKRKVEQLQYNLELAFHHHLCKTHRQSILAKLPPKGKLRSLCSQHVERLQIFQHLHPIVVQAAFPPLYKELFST
The experiment in a line: RORγ-Ligand Binding Domain TR-FRET Assay. It counts as biochemical. Conditions: Table 8, indazoles. The method, boiled down: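 Unpurified His-tagged LBD in Sf9 lysate (~10 nM final) in 25 mM HEPES pH 7.0, 100 mM NaCl, 0.01% Tween, 0.1% BSA, with biotinylated SRC1-2 LXXLL peptide (450 nM), Eu anti-His (2 nM) and streptavidin-APC (60 nM). Incubated 4 h to overnight; IC50 from 665/615 nm TR-FRET ratio.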
For orientation: TR-FRET usually uses a lanthanide donor and a delayed reading to cut background.
`COc1cccc(S(=O)(=O)n2ncc3ccc(NC(=O)Cc4cc(F)cc(F)c4)cc32)c1` [Compound V-16] showed an IC50 of under 15 µM.
`Cc1nn(C(F)F)cc1S(=O)(=O)n1ncc2ccc(NC(=O)Cc3ccc(Cl)cc3)cc21` [Compound V-27] had an IC50 of under 15 µM.
The same measure, in the same setting: in the case of `COc1ccc(S(=O)(=O)n2ncc3ccc(NC(=O)c4c(F)cccc4Cl)cc32)c(OC)c1` [Compound V-91] it was under 15 µM; in that of `CC(C)(C)c1cccc(S(=O)(=O)n2ncc3ccc(NC(=O)c4c(F)cccc4C(F)(F)F)cc32)c1` [Compound V-11], under 15 µM.
The same measure, in the same setting: the same measure for `O=C(Nc1ccc2cnn(S(=O)(=O)c3ccccc3C(F)(F)F)c2c1)c1c(F)cccc1Cl` [Compound V-132]: under 15 µM.
Still for that read-out and setting: the same measure for `Cc1nn(C(F)F)cc1S(=O)(=O)n1ncc2ccc(NC(=O)Cc3ccc(F)c(F)c3)cc21` [Compound V-17]: under 15 µM; for `O=C(Nc1ccc2cnn(S(=O)(=O)c3ccc(F)c(C(F)(F)F)c3)c2c1)c1c(Cl)cccc1C(F)(F)F` [Compound V-33]: under 15 µM.
For the compound `O=C(Nc1ccc2cnn(S(=O)(=O)c3cccc(C(F)(F)F)c3)c2c1)c1c(F)cccc1C(F)(F)F` [Compound V-51], the IC50 was under 15 µM.
In the case of `O=C(Nc1ccc2cnn(S(=O)(=O)c3ccc(Cl)c(F)c3)c2c1)c1c(F)cccc1Cl` [Compound V-80], the IC50 is under 15 µM.
The same measure, in the same setting: the same measure for `N#Cc1ccc(S(=O)(=O)n2ncc3ccc(NC(=O)c4c(F)cccc4Cl)cc32)c(Cl)c1` [Compound V-146]: under 15 µM; for `O=C(Nc1ccc2cnn(S(=O)(=O)Cc3cc(C(F)(F)F)cc(C(F)(F)F)c3)c2c1)c1c(F)cccc1Cl` [Compound V-93]: under 15 µM; for `Cc1nn(C(F)F)cc1S(=O)(=O)n1ncc2ccc(NC(=O)Cc3cc(F)cc(F)c3)cc21` [Compound V-14]: under 15 µM.
In turn, `CC(=O)c1cccc(S(=O)(=O)n2ncc3ccc(NC(=O)Cc4cnc(C)s4)cc32)c1` [Compound V-4] showed an IC50 of under 15 µM.
`CNC(=O)Nc1ccc(S(=O)(=O)n2ncc3ccc(NC(=O)c4c(F)cccc4Cl)cc32)cc1` [Compound V-135]: the IC50 is under 15 µM.
For `COc1cccc(S(=O)(=O)n2ncc3ccc(NC(=O)Cc4ccc(Cl)cc4)cc32)c1` [Compound V-32], the concentration for half-maximal inhibition (IC50) was under 15 µM.
Same read-out and setting: in the case of `COC(=O)c1ccccc1S(=O)(=O)n1ncc2ccc(NC(=O)c3c(F)cccc3Cl)cc21` [Compound V-142] it was under 15 µM; in that of `O=C(Nc1ccc2cnn(S(=O)(=O)c3cccc(OC(F)(F)F)c3)c2c1)c1c(F)cccc1Cl` [Compound V-54], under 15 µM.
On to `CC(=O)c1ccc(S(=O)(=O)n2ncc3ccc(NC(=O)c4c(F)cccc4Cl)cc32)cc1` [Compound V-141], for which the IC50 is under 15 µM.
The same measure, in the same setting: the same measure for `COc1ccc(S(=O)(=O)n2ncc3ccc(NC(=O)c4c(F)cccc4Cl)cc32)cn1` [Compound V-162]: under 15 µM; for `O=C(Nc1ccc2cnn(S(=O)(=O)c3ccccc3Br)c2c1)c1c(F)cccc1Cl` [Compound V-84]: under 15 µM; for `C=Cc1nn(S(=O)(=O)c2cccc(C(F)(F)F)c2)c2cc(NC(=O)c3c(F)cccc3Cl)ccc12` [Compound 9, 2-Chloro-6-fluoro-N-[1-(3-trifluoromethylbenzenesulfonyl)-3-vinyl-1H-indazol-6-yl]benzamide]: under 15 µM.
On the same count and under the same terms, in the case of `Cc1ccc(C)c(S(=O)(=O)n2ncc3ccc(NC(=O)c4c(F)cccc4Cl)cc32)c1` [Compound V-117] it was under 15 µM; in that of `Cc1nn(C(F)F)cc1S(=O)(=O)n1ncc2ccc(NC(=O)c3c(F)cccc3Cl)cc21` [Compound V-104], under 15 µM; in that of `O=C(Nc1ccc2cnn(S(=O)(=O)Cc3ccc(Cl)c(Cl)c3)c2c1)c1c(F)cccc1Cl` [Compound V-139], under 15 µM.
The same measure, in the same setting: the same measure for `COc1ccc(S(=O)(=O)n2ncc3ccc(NC(=O)c4c(F)cccc4Cl)cc32)cc1F` [Compound V-164]: under 15 µM; for `O=C(Nc1ccc2cnn(S(=O)(=O)c3cccc(OC(F)(F)F)c3)c2c1)c1c(Cl)cccc1Cl` [Compound V-74]: under 15 µM; for `O=C(Nc1ccc2cnn(S(=O)(=O)c3cccc(OC(F)F)c3)c2c1)c1c(F)cccc1Cl` [Compound V-85]: under 15 µM.
In turn, `CC(=O)c1cccc(S(=O)(=O)n2ncc3ccc(NC(=O)Cc4ccc(Cl)cc4)cc32)c1` [Compound V-30] gave an IC50 of under 15 µM.
Still for that read-out and setting: the same measure for `Cc1cccc(S(=O)(=O)n2ncc3ccc(NC(=O)Cc4ccc(F)c(F)c4)cc32)c1` [Compound V-20]: under 15 µM; for `O=C(Nc1ccc2cnn(S(=O)(=O)c3ccccc3)c2c1)c1c(F)cccc1Cl` [Compound V-159]: under 15 µM; for `Cc1cccc(F)c1C(=O)Nc1ccc2cnn(S(=O)(=O)c3cccc(C(F)(F)F)c3)c2c1` [Compound V-1]: under 15 µM.
Consider `O=C(Nc1ccc2cnn(S(=O)(=O)c3cccc(Cl)c3)c2c1)c1c(Cl)cccc1C(F)(F)F` [Compound V-39], for which the IC50 is under 15 µM.
On the same count and under the same terms, in the case of `Cc1ccc(S(=O)(=O)n2ncc3ccc(NC(=O)c4c(F)cccc4Cl)cc32)cc1` [Compound V-158] it was under 15 µM.
The same measure, in the same setting: the same measure for `Cc1nn(C(F)F)cc1S(=O)(=O)n1ncc2ccc(NC(=O)c3c(F)cccc3C(F)(F)F)cc21` [Compound V-43]: under 15 µM; for `O=C(Nc1ccc2cnn(S(=O)(=O)C3CCOCC3)c2c1)c1c(F)cccc1Cl` [Compound V-79]: under 15 µM.

The assay is the same for the next values; noted with them: benzoxazines, Table 9.
`N#Cc1cccc(S(=O)(=O)N2C[C@H](CO)Oc3ccc(NC(=O)c4c(F)cccc4F)cc32)c1` [VI-65] returned an IC50 of under 15 µM.
Still for that read-out and setting: in the case of `N#Cc1cccc(S(=O)(=O)N2C[C@@H](CO)Oc3ccc(NC(=O)c4c(F)cccc4Cl)cc32)c1` [VI-59] it was under 15 µM.
Still for that read-out and setting: in the case of `O=C(Nc1ccc2c(c1)N(S(=O)(=O)c1ccc(F)cc1)CCO2)c1c(F)cccc1Cl` [Compound 17, 2-Chloro-6-fluoro-N-(4-((4-fluorophenyl)sulfonyl)-3,4-dihydro-2H-benzo[b][1,4]oxazin-6-yl)benzamide] it was over 15 µM; in that of `C[C@H]1CN(S(=O)(=O)c2cccc(C#N)c2)c2cc(NC(=O)c3c(F)cccc3F)ccc2O1` [VI-2], under 15 µM.
Same read-out and setting: in the case of `O=C(Cc1ccc(F)cc1)Nc1ccc2c(c1)N(S(=O)(=O)c1ccc(F)c(F)c1)C[C@@H](CO)O2` [VI-74] it was under 15 µM; in that of `C[C@H]1CN(S(=O)(=O)c2ccc(F)cc2)c2cc(NC(=O)c3c(Cl)cccc3Cl)ccc2O1` [VI-18], under 15 µM; in that of `C[C@H]1CN(S(=O)(=O)c2ccc(F)cc2)c2cc(NC(=O)c3c(Cl)cccc3C(F)(F)F)ccc2O1` [VI-20], under 15 µM.
Compound `N#CC[C@H]1CN(S(=O)(=O)c2ccc(F)cc2)c2cc(NC(=O)c3c(F)cccc3Cl)ccc2O1` [Compound 19, (S)-2-Chloro-N-(2-(cyanomethyl)-4-((4-fluorophenyl)sulfonyl)-3,4-dihydro-2H-benzo[b][1,4]oxazin-6-yl)-6-fluorobenzamide] showed a half-inhibitory concentration (IC50) of under 15 µM.
In turn, `C[C@H]1CN(S(=O)(=O)c2cccc(C#N)c2)c2cc(NC(=O)c3c(F)cccc3C(F)(F)F)ccc2O1` [VI-4] yielded an IC50 of under 15 µM.
Same read-out and setting: in the case of `C[C@H]1CN(S(=O)(=O)c2cccc(C#N)c2)c2cc(NC(=O)c3c(Cl)cccc3Cl)ccc2O1` [VI-3] it was under 15 µM; in that of `C[C@H]1CN(S(=O)(=O)c2cccc(C#N)c2)c2cc(NC(=O)c3c(Cl)cccc3C(F)(F)F)ccc2O1` [VI-5], under 15 µM.

The values above are taken from patent US9512111B2, “N-sulfonylated tetrahydroquinolines and related bicyclic compounds for inhibition of RORγ activity and the treatment of disease” (Lycera Corporation, priority 2010, dated 2016).
